# Publication PMC12298351, “Novel 3,19-(N-Phenyl-3-(4-fluorophenyl)-pyrazole) Acetal of Andrographolide Promotes Cell Cycle Arrest and Apoptosis in MDA-MB-231 Breast Cancer Cells” (Pharmaceuticals, 2025)
# What was measured:
# MCF7 = settings: MCF7, Breast
# HT29 = settings: HT29, Colon
# DU-145 = settings: DU-145, Prostate
# MOLT-4 = settings: MOLT-4, Leukemia
# OVCAR-5 = settings: OVCAR-5, Ovarian
# SK-MEL-5 = settings: SK-MEL-5, Melanoma
# SK-MEL-2 = settings: SK-MEL-2, Melanoma
# SW-620 = settings: SW-620, Colon
# SF-268 = settings: SF-268, CNS
# HCC-2998 = settings: HCC-2998, Colon
# IGROV1 = settings: IGROV1, Ovarian
# MDA-MB-468 = settings: MDA-MB-468, Breast
# SK-MEL-28 = settings: SK-MEL-28, Melanoma
# M14 = assay type: cell-based; settings: M14, Melanoma
# MALME-3M = settings: Melanoma
# KM12 = settings: KM12, Colon
# [1] = DPPH radical scavenging assay; settings: 25 µM test compound, 0.1 mM DPPH, acetonitrile, 30 min
# In short: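 Compounds at 25 µM in acetonitrile mixed 1:2 with 0.1 mM DPPH in acetonitrile, kept 30 min in the dark at room temperature. Absorbance read at 517 nm; % scavenging = (Ac − As)/Ac × 100, Ac being DPPH blank. Ascorbic acid positive control.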
# CAKI-1 = settings: CAKI-1, Renal
# BT-549 = assay type: cell-based; settings: BT-549, Breast
# [2] = read-out: 50% lethal concentration (LC50)
# [3] = read-out: 50% lethal concentration (LC50), Leukemia
structure (smiles),measurement,setting,value
C=C1CCC2C3(C)COC(c4cn(-c5ccccc5)nc4-c4ccc(OC)cc4)OC3CCC2(C)C1CC=C1C(=O)OCC1O (stereo not shown) [1j],GI50,MCF7,1460 nM
same,Total growth inhibition (TGI),MCF7,> 100 µM
same,CC50,MCF7; [2],> 100 µM
same,GI50,HT29,1700 nM
same,Total growth inhibition (TGI),HT29,3.38 µM
same,CC50,HT29; [2],6.73 µM
same,GI50,DU-145,2040 nM
same,Total growth inhibition (TGI),DU-145,4.94 µM
same,CC50,DU-145; [2],16.4 µM
same,GI50,ACHN; Renal,1520 nM
same,Total growth inhibition (TGI),ACHN; Renal,2.87 µM
same,CC50,"ACHN; read-out: 50% lethal concentration (LC50), Renal",5.41 µM
same,GI50,SR; Leukemia,1740 nM
same,Total growth inhibition (TGI),SR; Leukemia,5.21 µM
same,CC50,SR; [3],> 100 µM
same,Total growth inhibition (TGI),"HOP-62; HOP-62, Non-Small Cell Lung",10.4 µM
same,GI50,"HOP-62; HOP-62, Non-Small-Cell Lung",2650 nM
same,CC50,"HOP-62; read-out: 50% lethal concentration (LC50), HOP-62, Non-Small Cell Lung",86.3 µM
same,Total growth inhibition (TGI),"NCI-H23; NCI-H23, Non-Small Cell Lung",3.74 µM
same,GI50,"NCI-H23; NCI-H23, Non-Small-Cell Lung",1710 nM
same,CC50,"NCI-H23; read-out: 50% lethal concentration (LC50), NCI-H23, Non-Small Cell Lung",8.2 µM
same,GI50,MOLT-4,1710 nM
same,Total growth inhibition (TGI),MOLT-4,7.57 µM
same,CC50,MOLT-4; [2],> 100 µM
same,GI50,OVCAR-5,1860 nM
same,Total growth inhibition (TGI),OVCAR-5,4.21 µM
same,CC50,OVCAR-5; [2],9.52 µM
same,GI50,SK-MEL-5,1540 nM
same,Total growth inhibition (TGI),SK-MEL-5,2.89 µM
same,CC50,SK-MEL-5; [2],5.41 µM
same,GI50,HL-60(TB); Leukemia,1080 nM
same,Total growth inhibition (TGI),HL-60(TB); Leukemia,3.96 µM
same,CC50,HL-60(TB); [3],> 100 µM
same,GI50,T-47D; Breast,1800 nM
same,Total growth inhibition (TGI),T-47D; Breast,5.02 µM
same,CC50,"T-47D; read-out: 50% lethal concentration (LC50), Breast",> 100 µM
same,GI50,SK-MEL-2,1570 nM
same,Total growth inhibition (TGI),SK-MEL-2,3.08 µM
same,GI50,SW-620,1690 nM
same,Total growth inhibition (TGI),SW-620,3.8 µM
same,CC50,SW-620; [2],8.55 µM
same,GI50,"MDA-MB-231; MDA-MB-231, Breast",1470 nM
same,Total growth inhibition (TGI),"MDA-MB-231; MDA-MB-231/ATCC, Breast",2.98 µM
same,CC50,"MDA-MB-231; read-out: 50% lethal concentration (LC50), MDA-MB-231/ATCC, Breast",60.1 µM
same,GI50,SF-268,1670 nM
same,Total growth inhibition (TGI),SF-268,3.6 µM
same,CC50,SF-268; [2],7.77 µM
same,GI50,HCC-2998,1700 nM
same,Total growth inhibition (TGI),HCC-2998,3.19 µM
same,GI50,IGROV1,1370 nM
same,Total growth inhibition (TGI),IGROV1,2.99 µM
same,CC50,IGROV1; [2],6.52 µM
same,GI50,MDA-MB-468,1710 nM
same,Total growth inhibition (TGI),MDA-MB-468,3.25 µM
same,CC50,MDA-MB-468; [2],6.16 µM
same,GI50,SK-MEL-28,1940 nM
same,Total growth inhibition (TGI),SK-MEL-28,3.69 µM
same,CC50,SK-MEL-28; [2],7.01 µM
same,GI50,M14,1720 nM
same,Total growth inhibition (TGI),M14,3.54 µM
same,GI50,MALME-3M,1540 nM
same,Total growth inhibition (TGI),MALME-3M,2.93 µM
same,GI50,KM12,1660 nM
same,Total growth inhibition (TGI),KM12,3.31 µM
same,% DPPH radical scavenging activity,[1],59.2%
same,GI50,CAKI-1,1260 nM
same,Total growth inhibition (TGI),CAKI-1,2.64 µM
same,CC50,CAKI-1; [2],5.54 µM
same,Total growth inhibition (TGI),A549/ATCC; Non-Small Cell Lung,7.29 µM
same,GI50,A549/ATCC; Non-Small-Cell Lung,2390 nM
same,CC50,"A549/ATCC; read-out: 50% lethal concentration (LC50), Non-Small Cell Lung",62.2 µM
same,GI50,LOX IMVI; Melanoma,1570 nM
same,Total growth inhibition (TGI),LOX IMVI; Melanoma,2.93 µM
same,CC50,"LOX IMVI; read-out: 50% lethal concentration (LC50), Melanoma",5.47 µM
same,GI50,BT-549,1650 nM
same,Total growth inhibition (TGI),BT-549,3.23 µM
